Here are results for eight substances from patent publication US20150079168A1 (Keryx Biopharmaceuticals, Inc., priority 2012, published 2015).

Read-outs that look alike come from different tables or passages of the source.

One data set can be described thus: BET active surface area. The format is physicochemical. An excerpt:
BET theory explains the physical adsorption of gas molecules onto a solid surface. The theory serves as the basis for the measurement of the specific surface area of a material. This theory allows the calculation of surface areas of materials in a very accurate manner and is thus capable of distinguishing differences between separate preparations of what would otherwise appear to be the same material. For example, activated carbon is a form of carbon that has been processed to make it extremely porous and thus to have a very large surface area. Activated carbon has been experimentally determined, using calculations derived from BET theory, to have a surface area of around 3000 m^2 g^−1.

Data set [1] concerns patients with end-stage renal disease (ESRD) on dialysis. The experiment in a line: Three-period trial of ferric citrate as phosphate binder: 52-week randomized, open-label, active control Safety Assessment Period. The format is in vivo, human. As for the experimental part:
This trial was a three-period, multicenter, safety and efficacy clinical trial.
Patients were followed on their randomized assignment for safety assessments over 52 weeks.
Calcium acetate 667 mg capsules and sevelamer carbonate 800 mg tablets were used and were supplied by Keryx Biopharmaceuticals, Inc. (Keryx) for the duration of the trial.
Serum phosphorus and calcium were checked at Visit 5 (Week 1), and every two weeks during the first 12 weeks after Visit 4 (Randomization Visit), and monthly for the rest of the Safety Assessment Period. During the Efficacy Assessment Period, serum phosphorus and calcium were drawn weekly. These values guided study drug administration. While on study drug, the use of other phosphate binders was not permitted. […] The titration of calcium acetate and sevelamer carbonate throughout the 52-week Safety Assessment Period were according to the current package inserts for these agents and/or at the discretion of the site PI.
Patients took study drug orally with or within one hour of meals or snacks. […] The PI or designee at each site dispensed the study drug to the patient and instructed the patient on how to administer it. It was recognized that some patients required a different distribution in pills in a given day due to snacks or missed meals.
Serum phosphorus and calcium were performed at Screening (Visit 0); weekly during the Washout Period after Visit 1 (Week −2); at Visit 4 (Randomization Visit); at Visits 5 (Week 1), 6 (Week 2), 7 (Week 4), 8 (Week 6), 9 (Week 8), 10 (Week 10), 11 (Week 12), 12 (Week 16), 13 (Week 20), 14 (Week 24), 15 (Week 28), 16 (Week 32), 17 (Week 36), 18 (Week 40), 19 (Week 44), 20 (Week 48), and 21 (Week 52) of the 52-week Safety Assessment Period; and at Visits 22 (Week 53), 23 (Week 54), 24 (Week 55) and 25 (Week 56) of the Efficacy Assessment Period. […]
The efficacy analyses were based on Full Analysis (FA) population that consisted of all patients who took at least one dose of study medication and provided baseline and at least one post-baseline efficacy assessment. The safety analyses were based on safety population that was consistent of all patients who took at least one dose of study medication.
There were two unique and distinct baseline assessments. The baseline for the Safety Assessment Period was the Randomization Visit (Visit 4) and was defined as “Week-0-baseline.” The baseline for the Efficacy Assessment Period was the last visit of the Safety Assessment Period (Visit 21. Week 52) and was defined as “study-baseline.”

The mark [2] stands for this setting: Week 12, ANCOVA, Day-0 baseline covariate.

For the substance ferric citrate [Batch No. 35102], the “BET Active Surface Area” value in the data set “BET active surface area” is 30.6 m^2/g.
For ferric citrate [Batch No. 35103], in the data set “BET active surface area”, the “BET Active Surface Area” value is given as 29.1 m^2/g.
Still for that read-out and setting: the same measure for ferric citrate [Batch No. 35105]: 31.5 m^2/g; for ferric citrate [Batch No. 35106]: 28.5 m^2/g.
Regarding ferric citrate [RFS-12-1], the “BET Active Surface Area” value in “BET active surface area” was 0.61 m^2/g; in “BET active surface area” (Table 1, unit not given), 0.61.
For ferric citrate [STM-134-1], the “BET Active Surface Area” value in the data set “BET active surface area” (Table 1, unit not given) worked out at 16.17.
Consider ferric citrate [STM-182-1], for which the “BET Active Surface Area” value in “BET active surface area” (Table 1, unit not given) is 19.85.
Take sevelamer carbonate: in data set [1] (Baseline), the “Calcium, Mean (SD)” value is on record as 9.056 (0.7291) MG/DL; the “Calcium, Median” value worked out at 9.150 mg/dL; the “Product Of Calcium And Phosphorus, Mean (SD)” value is 68.0872 (16.29); the “Product Of Calcium And Phosphorus, Median” value stood at 66.2700. Besides, in data set [1] (Baseline (Table 12)), the “Phosphorus, Mean (SD)” value is listed as 7.51 (1.633) MG/DL and the “Phosphorus, Median” value worked out at 7.40 mg/dL. For the same substance, in data set [1] (Week 12), the “Calcium, Change from Baseline, Mean (SD)” value was 0.175 (0.7509) MG/DL; the “Calcium, Change from Baseline, Median” value worked out at 0.100 mg/dL; the “Calcium, Mean (SD)” value is recorded as 9.231 (0.7210) MG/DL; the “Calcium, Median” value was 9.400 mg/dL. Besides, in data set [1] (Week 12), the “Product Of Calcium And Phosphorus, Change from Baseline, Mean (SD)” value is reported as −20.0621 (19.17); the “Product Of Calcium And Phosphorus, Change from Baseline, Median” value was −19.8500; the “Product Of Calcium And Phosphorus, Mean (SD)” value is listed as 48.0251 (14.37); the “Product Of Calcium And Phosphorus, Median” value turned out to be 46.2800. Further, in data set [1] (Week 12 (Table 12)), the “Phosphorus, Change from Baseline, Mean (SD)” value is on record as −2.28 (2.169) MG/DL; the “Phosphorus, Change from Baseline, Median” value is -2.45 mg/dL; the “Phosphorus, Mean (SD)” value is 5.23 (1.713) MG/DL; the “Phosphorus, Median” value was found to be 5.00 mg/dL. In addition, in data set [1] (setting [2]), the “Calcium, LS Mean (SE)” value is 9.15 (0.08) MG/DL and the “Product Of Calcium And Phosphorus, LS Mean (SE)” value is given as 47.52 (1.50). Moreover, the “Phosphorus, LS Mean (SE)” value in data set [1] (Week 12, ANCOVA, Day-0 baseline covariate (Table 12)) was 5.22 (0.17) MG/DL.
